Laboratory results as given in US9873709B2 (priority 2013, dated 2018).

Tested on: JAK1-dependent STAT6 phosphorylation downstream of IL-13 stimulation in TF-1 human erythroleukemia cells
Assay: cells
Conditions: TF-1, read-out: IL-13-pSTAT6 IC50

IC50 [nM]	SMILES
11.5	O=C(CCC(F)(F)F)N1CC=C(c2cccn3nc(Nc4ccc(C(=O)N5CCN(C6CC6)CC5)cc4)nc23)CC1 [Example 2-202, 1-[4-[2-[4-(4-cyclopropylpiperazine-1-carbonyl)anilino]-[1,2,4]triazolo[1,5-a]pyridin-8-yl]-3,6-dihydro-2H-pyridin-1-yl]-4,4,4-trifluoro-butan-1-one]
20.4	CCOC(=O)N1CC=C(c2cccn3nc(Nc4ccc(C(=O)NC5CCN(C)CC5)cc4)nc23)CC1 [Example 2-60, ethyl 4-[2-[4-[(1-methyl-4-piperidyl)carbamoyl]anilino]-[1,2,4]triazolo[1,5-a]pyridin-8-yl]-3,6-dihydro-2H-pyridine-1-carboxylate]
30.1	Cn1ccnc1CN1CCN(C(=O)c2ccc(Nc3nc4c(C5=CCN(C(=O)CCC(F)(F)F)CC5)cccn4n3)cc2)CC1 [Example 2-203, 4,4,4-trifluoro-1-[4-[2-[4-[4-[(1-methylimidazol-2-yl)methyl]piperazine-1-carbonyl]anilino]-[1,2,4]triazolo[1,5-a]pyridin-8-yl]-3,6-dihydro-2H-pyridin-1-yl]butan-1-one]
14.1	CN1CCC(NC(=O)c2ccc(Nc3nc4c(N5CCC(O)(c6ccc(Cl)cc6)CC5)cccn4n3)cc2)CC1 [Example 1-105, 4-[[8-[4-(4-chlorophenyl)-4-hydroxy-1-piperidyl]-[1,2,4]triazolo[1,5-a]pyridin-2-yl]amino]-N-(1-methyl-4-piperidyl)benzamide]
13	CNC(=O)C1CN(C(=O)c2ccc(Nc3nc4c(C5=CCN(C(=O)CCC(F)(F)F)CC5)cccn4n3)cc2)CCN1CCc1ccccc1 (stereo not drawn) [Example 2-470, N-methyl-1-(2-phenylethyl)-4-[4-[[8-[1-(4,4,4-trifluorobutanoyl)-3,6-dihydro-2H-pyridin-4-yl]-[1,2,4]triazolo[1,5-a]pyridin-2-yl]amino]benzoyl] piperazine-2-carboxamide]
46.5	CN(C)C(=O)C1(c2ccncc2)CCCN1C(=O)c1ccc(Nc2nc3c(C4=CCN(C(=O)CCC(F)(F)F)CC4)cccn3n2)cc1 (stereo not drawn) [Example 2-261, N,N-dimethyl-2-(4-pyridyl)-1-[4-[[8-[1-(4,4,4-trifluorobutanoyl)-3,6-dihydro-2H-pyridin-4-yl]-[1,2,4]triazolo[1,5-a]pyridin-2-yl]amino]benzoyl] pyrrolidine-2-carboxamide]
4.7	CN(Cc1ccncc1)C(=O)c1ccc(Nc2nc3c(C4=CCN(C(=O)CCC(F)(F)F)CC4)cccn3n2)cc1 [Example 2-407, N-methyl-N-(4-pyridylmethyl)-4-[[8-[1-(4,4,4-trifluorobutanoyl)-3,6-dihydro-2H-pyridin-4-yl]-[1,2,4]triazolo[1,5-a]pyridin-2-yl]amino]benzamide]
355	O=C(CCC(F)(F)F)N1CC=C(c2cccn3nc(Nc4ccc(C(=O)N5C[C@H]6CN[C@H]6C5)cc4)nc23)CC1 [Example 2-449, 1-[4-[2-[4-[(1R,5R)-3,6-diazabicyclo[3.2.0]heptane-3-carbonyl]anilino]-[1,2,4]triazolo[1,5-a]pyridin-8-yl]-3,6-dihydro-2H-pyridin-1-yl]-4,4,4-trifluoro-butan-1-one]
89.7	CC(=O)N1CC2(C1)CN(C(=O)c1ccc(Nc3nc4c(C5=CCN(C(=O)CCC(F)(F)F)CC5)cccn4n3)cc1)C2 [Example 2-204, 1-[4-[2-[4-(6-acetyl-2,6-diazaspiro[3.3]heptane-2-carbonyl)anilino]-[1,2,4]triazolo[1,5-a]pyridin-8-yl]-3,6-dihydro-2H-pyridin-1-yl]-4,4,4-trifluoro-butan-1-one]
20.5	CN1CCC(NC(=O)c2ccc(Nc3nc4c(C5=CCN(C(=O)CCC(F)(F)F)CC5)cccn4n3)cc2)C1 (stereo not drawn) [Example 2-459, N-(1-methylpyrrolidin-3-yl)-4-[[8-[1-(4,4,4-trifluorobutanoyl)-3,6-dihydro-2H-pyridin-4-yl]-[1,2,4]triazolo[1,5-a]pyridin-2-yl]amino]benzamide]
297	O=C(NC1CCNC1)c1ccc(Nc2nc3c(C4=CCN(C(=O)CCC(F)(F)F)CC4)cccn3n2)cc1 (stereo not drawn) [Example 2-255, N-pyrrolidin-3-yl-4-[[8-[1-(4,4,4-trifluorobutanoyl)-3,6-dihydro-2H-pyridin-4-yl][1,2,4]triazolo[1,5 a]pyridin-2-yl]amino]benzamide]
19.8	O=C(CCC(F)(F)F)N1CC=C(c2cccn3nc(Nc4ccc(C(=O)N5CCC(Cc6cccnc6)CC5)cc4)nc23)CC1 [Example 2-277, 4,4,4-trifluoro-1-[4-[2-[4-[4-(3-pyridylmethyl)piperidine-1-carbonyl]anilino]-[1,2,4]triazolo[1,5-a]pyridin-8-yl]-3,6-dihydro-2H-pyridin-1-yl]butan-1-one]
322	O=C(NCC1CCNC1)c1ccc(Nc2nc3c(N4CCC(O)(c5ccc(Cl)cc5)CC4)cccn3n2)cc1 (stereo not drawn) [Example 1-180, 4-[[8-[4-(4-chlorophenyl)-4-hydroxy-1-piperidyl]-[1,2,4]triazolo[1,5-a]pyridin-2-yl]amino]-N-(pyrrolidin-3-ylmethyl)benzamide]
8.6	CN1CC2CN(C(=O)c3ccc(Nc4nc5c(C6=CCN(C(=O)CCC(F)(F)F)CC6)cccn5n4)cc3)CC2C1 (stereo not drawn) [Example 2-87, 4,4,4-trifluoro-1-[4-[2-[4-(2-methyl-1,3,3a,4,6,6a-hexahydropyrrolo[3,4-c]pyrrole-5-carbonyl)anilino]-[1,2,4]triazolo[1,5-a]pyridin-8-yl]-3,6-dihydro-2H-pyridin-1-yl]butan-1-one]
34.7	CCN1CCC(CN(C)C(=O)c2ccc(Nc3nc4c(C5=CCN(C(=O)CCC(F)(F)F)CC5)cccn4n3)cc2)C1 (stereo not drawn) [Example 2-39, N-[(1-ethylpyrrolidin-3-yl)methyl]-N-methyl-4-[[8-[1-(4,4,4-trifluorobutanoyl)-3,6-dihydro-2H-pyridin-4-yl]-[1,2,4]triazolo[1,5-a]pyridin-2-yl]amino]benzamide]
84.3	O=C(NC1CCCNC1)c1ccc(Nc2nc3c(N4CCC(O)(c5ccc(Cl)cc5)CC4)cccn3n2)cc1 (stereo not drawn) [Example 1-179, 4-[[8-[4-(4-chlorophenyl)-4-hydroxy-1-piperidyl]-[1,2,4]triazolo[1,5-a]pyridin-2-yl]amino]-N-(3-piperidyl)benzamide]
20.5	O=C(CCC(F)(F)F)N1CC=C(c2cccn3nc(Nc4ccc(C(=O)N5CCC(N6CCCC6)CC5)cc4)nc23)CC1 [Example 2-46, 4,4,4-trifluoro-1-[4-[2-[4-(4-pyrrolidin-1-ylpiperidine-1-carbonyl)anilino]-[1,2,4]triazolo[1,5-a]pyridin-8-yl]-3,6-dihydro-2H-pyridin-1-yl]butan-1-one]
13.2	CCOC(=O)N1CC=C(c2cccn3nc(Nc4ccc(C(=O)NC5CCN(C)C5)cc4)nc23)CC1 (stereo not drawn) [Example 2-433, ethyl 4-[2-[4-[(1-methylpyrrolidin-3-yl)carbamoyl]anilino]-[1,2,4]triazolo[1,5-a]pyridin-8-yl]-3,6-dihydro-2H-pyridine-1-carboxylate]
130	CC(C)C(=O)N1CC=C(c2cccn3nc(Nc4ccc(C(=O)N(C)C5CCN(C)CC5)cc4)nc23)CC1 [Example 2-410, N-methyl-N-(1-methyl-4-piperidyl)-4-[[8-[1-(2-methylpropanoyl)-3,6-dihydro-2H-pyridin-4-yl]-[1,2,4]triazolo[1,5-a]pyridin-2-yl]amino]benzamide]
15.7	CC1CCCCN1CCCNC(=O)c1ccc(Nc2nc3c(C4=CCN(C(=O)CCC(F)(F)F)CC4)cccn3n2)cc1 (stereo not drawn) [Example 2-47, N-[3-(2-methyl-1-piperidyl)propyl]-4-[[8-[1-(4,4,4-trifluorobutanoyl)-3,6-dihydro-2H-pyridin-4-yl]-[1,2,4]triazolo[1,5-a]pyridin-2-yl]amino]benzamide]
4.1	O=C(CCC(F)(F)F)N1CC=C(c2cccn3nc(Nc4ccc(C(=O)N5CCN6CCCC6C5)cc4)nc23)CC1 (stereo not drawn) [Example 2-200, 1-[4-[2-[4-(3,4,6,7,8,8a-hexahydro-1H-pyrrolo[1,2-a]pyrazine-2-carbonyl)anilino]-[1,2,4]triazolo[1,5-a]pyridin-8-yl]-3,6-dihydro-2H-pyridin-1-yl]-4,4,4-trifluoro-butan-1-one]
4.2	CN(Cc1ccccn1)C(=O)c1ccc(Nc2nc3c(C4=CCN(C(=O)CCC(F)(F)F)CC4)cccn3n2)cc1 [Example 2-199, N-methyl-N-(2-pyridylmethyl)-4-[[8-[1-(4,4,4-trifluorobulanoyl)-3,6-dihydro-2H-pyridin-4-yl]-[1,2,4]triazolo[1,5-a]pyridin-2-yl]amino]benzamide]
29.5	CCOC(=O)N1CC=C(c2cccn3nc(Nc4ccc(C(=O)NCC5CCCN(C)C5)cc4)nc23)CC1 (stereo not drawn) [Example 2-293, ethyl 4-[2-[4-[(1-methyl-3-piperidyl)methylcarbamoyl]anilino]-[1,2,4]triazolo[1,5-a]pyridin-8-yl]-3,6-dihydro-2H-pyridine-1-carboxylate]
204	COC(=O)N1CC=C(c2cccn3nc(Nc4ccc(C(=O)N(C)C5CCN(C)CC5)cc4)nc23)CC1 [Example 2-224, methyl 4-[2-[4-[methyl-(1-methyl-4-piperidyl)carbamoyl]anilino]-[1,2,4]triazolo[1,5-a]pyridin-8-yl]-3,6-dihydro-2H-pyridine-1-carboxylate]
20.9	CN1CCC(CNC(=O)c2ccc(Nc3nc4c(C5=CCN(C(=O)CCC(F)(F)F)CC5)cccn4n3)cc2)CC1 [Example 2-467, N-[(1-methyl-4-piperidyl)methyl]-4-[[8-[1-(4,4,4-trifluorobutanoyl)-3,6-dihydro-2H-pyridin-4-yl]-[1,2,4]triazolo[1,5-a]pyridin-2-yl]amino]benzamide]
28.6	O=C(CCC(F)(F)F)N1CC=C(c2cccn3nc(Nc4ccc(C(=O)N5CCN(CCO)CC5)cc4)nc23)CC1 [Example 2-153, 4,4,4-trifluoro-1-[4-[2-[4-[4-(2-hydroxyethyl)piperazine-1-carbonyl]anilino]-[1,2,4]triazolo[1,5-a]pyridin-8-yl]-3,6-dihydro-2H-pyridin-1-yl]butan-1-one]
10	CCOC(=O)N1CC=C(c2cccn3nc(Nc4ccc(C(=O)N5CC(NC)C5)cc4)nc23)CC1 [Example 2-55, Ethyl 4-[2-[4-[3-(methylamino)azetidine-1-carbonyl]anilino]-[1,2,4]triazolo[1,5-a]pyridin-8-yl]-3,6-dihydro-2H-pyridine-1-carboxylate]
